Reference: patent US20090306373A1, “4,7-DIHYDROTHIENO[2,3-B]PYRIDINE COMPOUNDS AND PHARMACEUTICAL COMPOSITIONS” (priority 2005, published 2009)

test system: alpha-MyHC; experiment: alpha-MyHC cytoblot in neonatal rat ventricular myocytes (NRVM); assay type: cell-based; details: Rattus norvegicus, Ventricular myocyte, Table 5, 72 hours, concentration giving 50% of maximum response
Experimental: In vitro activity of each compound is measured using the alpha-MyHC cytoblot process. Briefly, neonatal rat ventricular myocytes (NRVM) at 120,000 cells/ml in HyQ DME/High modified culture media supplemented with 10% charcoal/dextran treated FBS, 0.1% Nutridoma-SP, 1:100 MEM non-essential amino acids, 1:50 MEM amino acids solution w/o L-Gln, 1 mM sodium pyruvate and 1:100 P/S/G, are plated on gelatin coated sterile 384-well plates (Costar 3712) at 6,000 cells per well. Cells are incubated overnight at 37° C. in 5% CO2 100% humidity. Following overnight growth the media is changed to HyQ DME/High modified culture media supplemented with 0.3% Nutridoma-SP, 1:100 MEM non-essential amino acids, 1:50 MEM amino acids solution w/o L-Gln, 1 mM sodium pyruvate and 1:100 P/S/G. Cells are then dosed with serial dilutions of each compound in DMSO. Each concentration in the dose range is dosed in quadruplicate. Dosing is done in such a way so that the final DMSO concentration was 0.44%. Compound dilutions are 3-fold with the final top concentration of 10 uM. […] Following dosing, the cells are incubated for 72 hours at 37° C. in 5% CO2 100% humidity and then processed with the cytoblot method. Briefly, cell media is aspirated and cell monolayers washed with PBS and fixed with 100% methanol for 30 minutes. Fixed cells are then blocked with PBS, 0.05% Tween-20, 1% BSA, for 1 hour. Following blocking, cells are incubated with primary alpha-MyHC-specific antibody (1:30 dilution of BA-G5 hybridoma conditioned media, ATCC HB276) for 1 hour. Following incubation with the primary antibody, cells are washed with PBS, 0.05% Tween-20, 1% BSA and incubated with secondary antibody (1:1000 dilution, goat-anti-mouse HRP, Southern Biotech, 1031-05) for 1 hour. Following incubation with the secondary antibody, wells are washed and incubated in SuperSignal, West Dura HRP-luminescence substrate for 30 seconds under shaking at room temperature. Luminescence is measured using a Packard Fusion plate reader. […] RLU values are converted into percent fraction of low control and dose responses are fitted to a sigmoidal 4-parameter equation (XLFit, IDBS) where the EC50 and Max Plateau values were extracted. […] Max Plateau is the […] maximum value determined by the dose response fit.

SMILES | EC50
CC(=O)C1=C(C)N(C)c2sc(C(=O)c3ccccc3)c(N)c2C1c1ccccc1 (stereo not drawn) [Compound 208, 1-(3-amino-2-benzoyl-6,7 dimethyl-4-phenyl-4,7 dihydro-thieno[2,3-b]pyridin-5-yl)-ethanone] | 3.43 µM

same assay, conditions: Table 1, 72 hours, fitted maximum, percent fraction of low control (vehicle), in %

SMILES | Max Plateau
CC(=O)C1=C(C)Nc2sc(C(=O)c3ccc(Cl)c(Cl)c3)c(N)c2C1c1ccccc1F (stereo not drawn) [Compound 27] | 220.13 ± 23.10
CC(=O)C1=C(C)Nc2sc(C(=O)c3ccccc3)c(N)c2C1c1ccc(F)cc1 (stereo not drawn) [Compound 37] | 227.92 ± 12.46
CCC(=O)C1=C(CC)Nc2sc(C(=O)c3ccc(Cl)c(Cl)c3)c(N)c2C1c1ccnc(Cl)c1 (stereo not drawn) [Compound 99] | 264.37 ± 33.84
CCC(=O)C1=C(CC)Nc2sc(C(=O)c3cc(F)cc(F)c3)c(N)c2C1c1ccccc1 (stereo not drawn) [Compound 76] | 230.70 ± 23.22
CC(=O)C1=C(C)Nc2sc(C(=O)c3ccccc3)c(N)c2C1c1ccc(C(F)(F)F)cc1 (stereo not drawn) [Compound 44] | 186.67 ± 11.55
CCC(=O)C1=C(CC)Nc2sc(C(=O)c3cc(Cl)ccc3Cl)c(N)c2C1c1ccccc1 (stereo not drawn) [Compound 64] | 281.39 ± 54.54
CCC(=O)C1=C(CC)Nc2sc(C(=O)c3ccc(Cl)c(Cl)c3)c(N)c2C1c1c(F)cccc1Cl (stereo not drawn) [Compound 40] | 244.87 ± 7.92
CC(=O)C1=C(C)Nc2sc(C(=O)c3cccc([N+](=O)[O-])c3)c(N)c2C1c1ccc(C(=O)O)cc1 (stereo not drawn) [Compound 9] | 100.00 ± 0.00
COc1ccc(C2C(C(C)=O)=C(C)Nc3sc(C(=O)c4ccccc4)c(N)c32)cc1 (stereo not drawn) [Compound 14] | 182.73 ± 26.95
CCCC(=O)C1=C(CCC)Nc2sc(C(=O)c3ccc(F)c(F)c3)c(N)c2C1c1ccccc1 (stereo not drawn) [Compound 95] | 147.01 ± 6.43
CC(=O)C1=C(C)Nc2sc(C(=O)c3ccc(Cl)c(Cl)c3)c(N)c2C1c1ccc[nH]1 (stereo not drawn) [Compound 42] | 160.56 ± 20.02
CC(=O)C1=C(C)Nc2sc(C(=O)c3ccccc3)c(N)c2C1c1ccncc1 (stereo not drawn) [Compound 19] | 260.00 ± 36.06
CCC(=O)C1=C(CC)Nc2sc(C(=O)c3ccc(Cl)c(Cl)c3)c(N)c2C1c1ccc2ccccc2c1 (stereo not drawn) [Compound 88] | 113.45 ± 11.92
CC(=O)C1=C(C)Nc2sc(C(=O)c3ccccc3)c(N)c2C1c1cccnc1 (stereo not drawn) [Compound 20] | 127.35 ± 23.71
CC(=O)C1=C(C)Nc2sc(C(=O)c3ccccn3)c(N)c2C1c1ccccc1 (stereo not drawn) [Compound 16] | 163.33 ± 32.15
CCCC(=O)C1=C(CCC)Nc2sc(C(=O)c3cc(Cl)ccc3Cl)c(N)c2C1c1ccccc1 (stereo not drawn) [Compound 94] | 153.83 ± 13.14
CC(=O)C1=C(C)Nc2sc(C(=O)c3cccc(C(=O)O)c3)c(N)c2C1c1ccccc1 (stereo not drawn) [Compound 65] | 100.00 ± 0.00
CCCC(=O)C1=C(CCC)Nc2sc(C(=O)c3ccc(Cl)c(Cl)c3)c(N)c2C1c1ccccc1 (stereo not drawn) [Compound 86] | 131.26 ± 2.34
CCC(=O)C1=C(CC)Nc2sc(C(=O)c3ccc(Cl)c(Cl)c3)c(N)c2C1c1cccc(Cl)c1 (stereo not drawn) [Compound 54] | 267.44 ± 32.29
CCC(=O)C1=C(CC)Nc2sc(C(=O)c3ccc(Cl)c(Cl)c3)c(N)c2C1c1ccccc1[N+](=O)[O-] (stereo not drawn) [Compound 59] | 152.77 ± 11.42
CC(=O)C1=C(C)Nc2sc(C(=O)c3ccc(Cl)c(Cl)c3)c(N)c2C1c1ccccc1O (stereo not drawn) [Compound 34] | 184.69 ± 15.76
CCC(=O)C1=C(CC)Nc2sc(C(=O)c3ccccc3F)c(N)c2C1c1ccccc1 (stereo not drawn) [Compound 67] | 256.12 ± 53.66
CC(=O)C1=C(C)Nc2sc(C(=O)c3ccc(Cl)c(Cl)c3)c(N)c2C1c1ccc(C(F)(F)F)cc1 (stereo not drawn) [Compound 48] | 190.81 ± 37.09
CC(=O)C1=C(C)Nc2sc(C(=O)c3ccc(Cl)c(Cl)c3)c(N)c2C1c1ccc(Cl)c(Cl)c1 (stereo not drawn) [Compound 47] | 173.47 ± 25.64
CC(=O)C1=C(C)Nc2sc(C(=O)c3ccc(Cl)c(Cl)c3)c(N)c2C1c1cc(Cl)cc(Cl)c1 (stereo not drawn) [Compound 33] | 143.15 ± 21.22
COc1cccc(C2C(C(C)=O)=C(C)Nc3sc(C(=O)c4ccccc4)c(N)c32)c1 (stereo not drawn) [Compound 15] | 126.50 ± 24.27
CC(=O)C1=C(C)Nc2sc(C(=O)c3ccccc3Cl)c(N)c2C1c1ccccc1 (stereo not drawn) [Compound 57] | 246.00 ± 16.33
CCC(=O)C1=C(CC)Nc2sc(C(=O)c3cc(C(C)(C)C)c(O)c(C(C)(C)C)c3)c(N)c2C1c1ccccc1 (stereo not drawn) [Compound 90] | 300.00 ± 0.00
CCC(=O)C1=C(CC)Nc2sc(C(=O)c3ccc(Cl)c(Cl)c3)c(N)c2C1c1c(F)cccc1F (stereo not drawn) [Compound 63] | 230.07 ± 45.59
CC(=O)C1=C(C)Nc2sc(C(=O)c3cccc(Br)c3)c(N)c2C1c1ccccc1 (stereo not drawn) [Compound 6] | 289.34 ± 70.69

same assay, conditions: Table 2, 72 hours, fitted maximum, percent fraction of low control (vehicle), in %

SMILES | Max Plateau
COCCOC(=O)C1=C(C)Nc2sc(C(=O)c3ccc(Cl)c(Cl)c3)c(N)c2C1c1ccccc1 (stereo not drawn) [Compound 119] | 234.93
CC1=C(C(=O)OC(C)C)C(c2ccccc2)c2c(sc(C(=O)c3ccc(Cl)c(Cl)c3)c2N)N1 (stereo not drawn) [Compound 135] | 186.32
CCOC(=O)C1=C(CC)Nc2sc(C(=O)c3ccc(Cl)c(Cl)c3)c(N)c2C1c1ccncc1F (stereo not drawn) [Compound 168] | 239.64
CCOC(=O)C1=C(CC)Nc2sc(C(=O)c3ccc(F)c(CC(=O)OC)c3)c(N)c2C1c1ccccc1 (racemic) [Compound 194] | 188.67
CCC1=C(C(=O)OC)C(c2cccc(Cl)c2F)c2c(sc(C(=O)c3ccc(Cl)c(Cl)c3)c2N)N1 (stereo not drawn) [Compound 155] | 224.86
CCOC(=O)C1=C(CC)Nc2sc(C(=O)c3ccc(Cl)cc3Cl)c(N)c2C1c1ccccc1 (stereo not drawn) [Compound 145] | 224.48
CCC1=C(C(=O)OC)C(c2ccccc2F)c2c(sc(C(=O)c3cccc([N+](=O)[O-])c3)c2N)N1 (stereo not drawn) [Compound 140] | 266.63
COC(=O)C1=C(C(C)(C)C)Nc2sc(C(=O)c3ccc(Cl)c(Cl)c3)c(N)c2C1c1ccccc1 (stereo not drawn) [Compound 131] | 158.97
CCC1=C(C(=O)OC)C(c2ccccc2)c2c(sc(C(=O)c3cccc(C#N)c3)c2N)N1 (stereo not drawn) [Compound 143] | 290.53
CCOC(=O)C1=C(CC)Nc2sc(C(=O)c3cccc(C(=O)O)c3)c(N)c2C1c1ccccc1 (stereo not drawn) [Compound 152] | 238.69
COC(=O)C1=C(CCc2ccccc2)Nc2sc(C(=O)c3ccc(Cl)c(Cl)c3)c(N)c2C1c1ccccc1F (stereo not drawn) [Compound 154] | 125.87
CCOC(=O)C1=C(CC)Nc2sc(C(=O)c3ccc(Cl)c(Cl)c3)c(N)c2C1c1ccccc1F (stereo not drawn) [Compound 142] | 194.32
CCC1=C(C(=O)OC)C(c2cc(F)cc(F)c2)c2c(sc(C(=O)c3ccccc3)c2N)N1 (stereo not drawn) [Compound 172] | 304.08
CCC1=C(C(=O)OC2CCCCC2)C(c2ccccc2)c2c(sc(C(=O)c3ccc(Cl)c(Cl)c3)c2N)N1 (stereo not drawn) [Compound 160] | 186.95
CCC1=C(C(=O)OC)C(c2cc(F)cc(F)c2)c2c(sc(C(=O)c3ccc(F)c(F)c3)c2N)N1 (stereo not drawn) [Compound 170] | 262.16
CCC1=C(C(=O)OCC(C)C)C(c2ccccc2)c2c(sc(C(=O)c3ccc(Cl)c(Cl)c3)c2N)N1 (stereo not drawn) [Compound 161] | 232.35

same assay, conditions: Table 3, 72 hours, fitted maximum, percent fraction of low control (vehicle), in %

SMILES | Max Plateau
CCCCNC(=O)C1=C(C)Nc2sc(C(=O)c3ccc(Cl)c(Cl)c3)c(N)c2C1c1ccccc1 (racemic) [Compound 196] | 121.93 ± 25.12
